Experiments:
[1] = system: Rat Liver; conditions: chronic rat study, liver; ref ToxRefDB; cited from earlier work
[2] = system: Rat Liver; conditions: chronic rat study, liver; ref ToxRefDB; cited from earlier work; remark: listed apart in the source
[3] = system: HMGCS2; test: CLZD_HMGCS2: Change in expression of HMGCS2 (primary human hepatocytes); assay type: cell-based; conditions: 24 hr
Experimental: This is a collection of multiplexed gene expression assays focused on Phase I and II xenobiotic metabolizing enzymes and transporters. Human primary cell cultures were treated with chemicals at 5 concentrations (0.004-40 [drawing 42] M) for 6, 24 and 48 hr. Concentration- and time-response profiles of chemicals were measured by the expression of key nuclear receptor target genes, activities of CYP1A enzymes (EROD), and cell morphology. Fourteen gene targets were monitored by quantitative nuclease protection assay including: six representative cytochrome P-450 genes, four hepatic transporters, three Phase II conjugating enzymes, and one endogenous metabolism gene involved in cholesterol synthesis. The target genes associated with nuclear receptor pathways are as follows: [drawing 43] and [drawing 44] with [drawing 45]; [drawing 46] , [drawing 47] , [drawing 48] , [drawing 49] , [drawing 50] and [drawing 51] with [drawing 52]; [drawing 53] , [drawing 54] , [drawing 55] and [drawing 56] with [drawing 57]; [drawing 58] with [drawing 59]; and [drawing 60] with [drawing 61] . Assays were run in primary human hepatocyte cultures by CellzDirect Invitrogen Inc. (Durham, NC), in collaboration with EPA.
Multiplexed Gene Expression in Human Primary Hepatocytes: This is a collection of multiplexed gene expression assays focused on Phase I and II metabolic enzymes and transporters. […] Fourteen gene targets were monitored by quantitative nuclease protection assay: six representative cytochrome P450 genes, four hepatic transporters, three Phase II conjugating enzymes, and one endogenous metabolism gene involved in cholesterol synthesis. Cells were exposed at 5 concentrations (0.004-40 µM) for 6, 24 or 48 hr. Gene targets are sentinels for five nuclear receptor signaling pathways: AhR, CAR, PXR, FXR, and PPARα. All gene are associated with nuclear receptor pathways: CYP1A1 and CYP1A2 with AHR; ABCB1, ABCG2, CYP2B6, CYP2C9, CYP2C19 and UGT1A1 with CAR; CYP3A4, GSTA2, SLCO1B1 and SULT2A1 with PXR; HMGCS2 with PPARA; and ABCB11 with FXR. […] Detailed description of the methods, data and analysis methods for this dataset will be presented in a separate publication.

[4] = system: Rat Liver; conditions: chronic rat study, liver; ref ToxRefDB; cited from earlier work; remark: listed apart in the source
[5] = target: T1, LXRa (NR1H3) (Homo sapiens, UniProt Q13133); test: ATG_LXRa_TRANS: Factorial reporter gene assay (HepG2); assay type: cell-based; conditions: HepG2
T1 construct: expressed in transfected cells; host or cells: HepG2
T1 sequence (Q13133 1-447): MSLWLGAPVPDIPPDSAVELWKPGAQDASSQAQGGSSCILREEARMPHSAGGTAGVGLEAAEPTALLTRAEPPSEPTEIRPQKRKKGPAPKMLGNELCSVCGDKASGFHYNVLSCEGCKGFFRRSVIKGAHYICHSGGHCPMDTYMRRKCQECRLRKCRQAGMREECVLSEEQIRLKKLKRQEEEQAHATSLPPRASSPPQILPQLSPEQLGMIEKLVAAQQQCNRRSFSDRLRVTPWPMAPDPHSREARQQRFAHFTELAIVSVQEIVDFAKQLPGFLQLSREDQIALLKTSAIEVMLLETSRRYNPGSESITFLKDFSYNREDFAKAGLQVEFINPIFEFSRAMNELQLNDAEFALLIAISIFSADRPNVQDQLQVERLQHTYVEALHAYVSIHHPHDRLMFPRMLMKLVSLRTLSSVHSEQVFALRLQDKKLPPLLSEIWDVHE
Experimental: (§1) A multiple reporter transcription unit (MRTU) library consisting of 48 transcription factor binding sites was transfected into the HepG2 human liver hepatoma cell line. In addition to the cis-acting reporter genes (CIS), a modification of the approach was used to generate a trans-system (TRANS) with a mammalian one-hybrid assay consisting of an additional 25 MRTU library reporting the activity of nuclear receptor super-family members. […] These assays were performed by Attagene Inc. (Morrisville NC) under contract to EPA.
(§2) In addition to the cis-acting reporter genes (CIS), a modification of the approach was used to generate a trans-system (TRANS) with a mammalian one-hybrid assay consisting of an additional 25 MRTU library reporting the activity of nuclear receptor super-family members. […] Chemicals were then tested in the CIS and TRANS assays at seven concentrations starting at the MTC and followed by three-fold serial dilutions. These assays were performed by Attagene Inc. (Morrisville NC) under contract to EPA. Detailed description of the methods, data and analysis methods for this dataset will be presented in a separate publication.

[6] = target: T2, PPARG (peroxisome proliferator-activated receptor gamma) (Homo sapiens, UniProt P37231); test: ATG_PPARg_TRANS: Factorial reporter gene assay (HepG2); assay type: cell-based; conditions: HepG2
T2 construct: expressed in transfected cells; host or cells: HepG2
T2 sequence (P37231 1-505): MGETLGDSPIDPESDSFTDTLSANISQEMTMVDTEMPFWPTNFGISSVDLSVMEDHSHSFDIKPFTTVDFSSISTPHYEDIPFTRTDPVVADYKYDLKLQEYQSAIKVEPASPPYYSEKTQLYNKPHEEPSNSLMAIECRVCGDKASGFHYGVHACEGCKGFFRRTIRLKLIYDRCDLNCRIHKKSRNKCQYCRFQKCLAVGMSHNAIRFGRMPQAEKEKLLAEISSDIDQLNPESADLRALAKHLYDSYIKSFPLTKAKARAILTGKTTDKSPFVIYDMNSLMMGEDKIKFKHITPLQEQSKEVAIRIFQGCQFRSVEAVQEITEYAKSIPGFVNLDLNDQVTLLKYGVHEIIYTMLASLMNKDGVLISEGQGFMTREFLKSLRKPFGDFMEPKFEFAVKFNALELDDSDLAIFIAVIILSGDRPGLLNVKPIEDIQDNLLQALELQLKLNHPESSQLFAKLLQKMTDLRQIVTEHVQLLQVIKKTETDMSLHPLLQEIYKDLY
Outline: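 Mammalian one-hybrid trans reporters (25 MRTUs) measured ERRg, FXR and PPARg; PXRE used cis reporters from a 48-site MRTU library. Both were run in HepG2. Dosing: seven concentrations, MTC as the highest, three-fold dilution series.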

[7] = target: T3, LXRb (NR1H2) (Homo sapiens, UniProt P55055); test: ATG_LXRb_TRANS: Factorial reporter gene assay (HepG2); assay type: cell-based; conditions: HepG2
T3 construct: expressed in transfected cells; host or cells: HepG2
T3 sequence (P55055 1-460): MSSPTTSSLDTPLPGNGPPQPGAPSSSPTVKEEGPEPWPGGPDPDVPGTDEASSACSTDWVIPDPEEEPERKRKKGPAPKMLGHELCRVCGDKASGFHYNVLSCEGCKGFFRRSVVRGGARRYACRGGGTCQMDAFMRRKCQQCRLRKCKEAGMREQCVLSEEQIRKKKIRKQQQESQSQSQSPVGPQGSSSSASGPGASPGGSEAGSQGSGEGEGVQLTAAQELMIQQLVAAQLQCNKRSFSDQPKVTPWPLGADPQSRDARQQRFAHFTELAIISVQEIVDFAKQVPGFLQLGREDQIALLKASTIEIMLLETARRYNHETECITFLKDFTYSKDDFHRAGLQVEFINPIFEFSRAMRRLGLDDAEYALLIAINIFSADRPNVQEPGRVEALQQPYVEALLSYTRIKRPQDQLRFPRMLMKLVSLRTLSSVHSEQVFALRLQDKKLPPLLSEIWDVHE
Experimental: as §1, §2

[8] = target: T4, AHR (aryl hydrocarbon receptor) (Homo sapiens, UniProt P35869); test: ATG_Ahr_CIS: Factorial reporter gene assay (multiplexed transcription reporter, HepG2); assay type: cell-based; conditions: HepG2
T4 construct: endogenous in cells; host or cells: HepG2
T4 sequence (P35869 11-848): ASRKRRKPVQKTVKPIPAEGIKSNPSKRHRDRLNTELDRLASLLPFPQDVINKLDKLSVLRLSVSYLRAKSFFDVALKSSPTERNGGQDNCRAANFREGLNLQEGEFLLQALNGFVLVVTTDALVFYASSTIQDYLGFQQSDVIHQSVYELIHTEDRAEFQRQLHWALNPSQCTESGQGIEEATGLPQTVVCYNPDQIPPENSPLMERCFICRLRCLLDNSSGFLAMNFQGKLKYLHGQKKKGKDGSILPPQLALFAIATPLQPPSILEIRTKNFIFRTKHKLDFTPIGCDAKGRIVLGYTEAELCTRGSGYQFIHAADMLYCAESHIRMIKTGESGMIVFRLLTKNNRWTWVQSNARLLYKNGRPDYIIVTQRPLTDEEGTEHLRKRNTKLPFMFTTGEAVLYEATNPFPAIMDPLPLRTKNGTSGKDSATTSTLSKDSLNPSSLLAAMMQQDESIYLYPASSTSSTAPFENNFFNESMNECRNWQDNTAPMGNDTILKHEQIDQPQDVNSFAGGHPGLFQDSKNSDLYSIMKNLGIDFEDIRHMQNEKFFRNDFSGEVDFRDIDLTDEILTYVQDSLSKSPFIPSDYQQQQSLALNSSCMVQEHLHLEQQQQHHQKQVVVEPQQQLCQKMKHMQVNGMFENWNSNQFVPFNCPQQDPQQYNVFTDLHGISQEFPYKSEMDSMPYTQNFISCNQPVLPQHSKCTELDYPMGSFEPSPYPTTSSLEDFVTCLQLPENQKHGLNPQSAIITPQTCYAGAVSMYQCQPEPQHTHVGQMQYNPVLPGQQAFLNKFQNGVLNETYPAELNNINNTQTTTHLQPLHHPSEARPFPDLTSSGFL
Experimental: as §1, §2

C[N+]1(C)CCCCC1.[Cl-] [row 193]
CHR_Rat_Liver_3_NeoplasticLesion [1]: 0
CHR_Rat_Liver_2_PreneoplasticLesion [2]: 0
CLZD_HMGCS2_24 [3]: 5.889
CHR_Rat_Liver_1_AnyLesion [4]: 0

CN=C=S [row 205]
ATG_LXRa_TRANS [5]: 4.495
ATG_PPARg_TRANS [6]: 4.215

COC(=O)c1ccccc1S(=O)(=O)NC(=O)Nc1nc(C)nc(OC)n1 [row 210]
ATG_LXRb_TRANS [7]: 4.215
CHR_Rat_Liver_3_NeoplasticLesion [1]: 0
CHR_Rat_Liver_2_PreneoplasticLesion [2]: 0
CHR_Rat_Liver_1_AnyLesion [4]: 0
ATG_Ahr_CIS [8]: 4.337
